Assay type in all cases: biochemical
Data set [1] addresses T1, factor Xa (Bos taurus, UniProt P00743).
T1 construct: purchased Diagnostic Reagents (product 'Diagen', 6.4 Denson U)
Nature of the data set: Determination of Km and Vmax (Lineweaver-Burk, hydrolysis of chromogenic substrate read at 405 nm). To be noted: value is Vmax multiplied by 10^8; Tris buffer pH 8.3, I 0.25, 37° C., enzyme Diagen. As to the method: (§1) Km and Vmax are obtained by means of the Lineweaver-Burk equation: [formula] Enzyme and substrate are mixed in a buffer solution and the rate of hydrolysis is measured spectrophotometrically. The substrate concentration (So) is varied while the enyzme concentration is kept constant. The reciprocal velocity l/vo is then plotted against the reciprocal substrate concentration l/So, and Km and Vmax are estimated (Table 1) from the obtained Lineweaver-Burk diagram.
(§2) Buffer Tris (tris(hydroxymethyl)aminomethane)
(§3) 0.05 mole/l, pH = 8.3, I = 0.25 (NaCl)
(§4) Enzyme Diagen (6.4 Denson U) (Diagnostic Reagents)
(§5) . 1 ampule is dissolved in 2 ml of water.
(§6) The substrate is dissolved in water to 2 mmole/l.
(§7) Mix and read change of absorbance (Δ OD/min) at […]

The target of data set [2] is T1, factor Xa. Nature of the data set: Relative activity (rate of substrate hydrolysis, Δ OD/min at 405 nm). To be noted: S-2222 = 100, 250 μl of 2 mmole/l substrate in 2500 μl, Tris buffer pH 8.3, 37° C. On the procedure:
as §2, §3, §4, §5, §6
Substrate, +37° C.250 μl
as §7

Substrate in data set [3]: CCOC(=O)CC[C@H](NC(=O)[C@@H](NC(=O)c1ccccc1)[C@@H](C)CC)C(=O)NCC(=O)N[C@@H](CCCNC(=N)N)C(=O)Nc1ccc([N+](=O)[O-])cc1
Briefly: Determination of Km and Vmax (Lineweaver-Burk, hydrolysis of chromogenic substrate read at 405 nm). The settings on record: other: value is Km multiplied by 10^4, Tris buffer 0.05 mole/l, pH 8.3, I 0.25 (NaCl), 37° C., enzyme Diagen, 37.0 °C. As to the method:
as §1, §2, §3, §4, §5, §6, §7

Substrate in data set [4]: CC[C@H](C)[C@H](NC(=O)c1ccccc1)C(=O)N[C@@H](CCC(=O)N1CCCCC1)C(=O)NCC(=O)N[C@@H](CCCNC(=N)N)C(=O)Nc1ccc([N+](=O)[O-])cc1
Described as above. The settings on record: other: value is Km multiplied by 10^4, Tris buffer 0.05 mole/l, pH 8.3, I 0.25 (NaCl), 37° C., enzyme Diagen, 37.0 °C. As to the method: as §1, §2, §3, §4, §5, §6, §7

Substrate in data set [5]: CC[C@H](C)[C@H](NC(=O)c1ccccc1)C(=O)N[C@@H](CCC(=O)NC(C)C)C(=O)NCC(=O)N[C@@H](CCCNC(=N)N)C(=O)Nc1ccc([N+](=O)[O-])cc1
The description is as above. The settings on record: other: value is Km multiplied by 10^4, Tris buffer 0.05 mole/l, pH 8.3, I 0.25 (NaCl), 37° C., enzyme Diagen, 37.0 °C. On the procedure:
as §1, §2, §3, §4, §5, §6, §7

Substrate in data set [6]: CC[C@H](C)[C@H](NC(=O)c1ccccc1)C(=O)N[C@@H](CCC(=O)O)C(=O)NCC(=O)N[C@@H](CCCN=C(N)N)C(=O)Nc1ccc([N+](=O)[O-])cc1
The data set is described as above. To be noted: other: stated in the text; pH 8.3. As to the method:
as §1, §2, §3, §4, §5, §6, §7

Substrate in data set [7]: CC[C@H](C)[C@H](NC(=O)c1ccccc1)C(=O)N[C@@H](CCC(=O)OC(C)C)C(=O)NCC(=O)N[C@@H](CCCNC(=N)N)C(=O)Nc1ccc([N+](=O)[O-])cc1
Described as above. To be noted: other: value is Km multiplied by 10^4, Tris buffer 0.05 mole/l, pH 8.3, I 0.25 (NaCl), 37° C., enzyme Diagen, 37.0 °C. As to the method:
as §1, §2, §3, §4, §5, §6, §7

Substrate in data set [8]: CC[C@H](C)[C@H](NC(=O)c1ccccc1)C(=O)N[C@@H](CCC(=O)OC)C(=O)NCC(=O)N[C@@H](CCCNC(=N)N)C(=O)Nc1ccc([N+](=O)[O-])cc1
The data set is described as above. To be noted: other: value is Km multiplied by 10^4, Tris buffer 0.05 mole/l, pH 8.3, I 0.25 (NaCl), 37° C., enzyme Diagen, 37.0 °C. On the procedure:
as §1, §2, §3, §4, §5, §6, §7

Structures can show the parent of a compound that is named as a salt. Residues, ends and D or L forms follow the SMILES beside them. *: point of attachment. pNA = O=[N+]([O-])c1ccc(N*)cc1; Piperidide = C1CCN(*)CC1; Bz = O=C(c1ccccc1)*; NHiPr = CC(C)N*; OiPr = CC(C)O*

Regarding `CC[C@H](C)[C@H](NC(=O)c1ccccc1)C(=O)N[C@@H](CCC(=O)OC)C(=O)NCC(=O)N[C@@H](CCCNC(=N)N)C(=O)Nc1ccc([N+](=O)[O-])cc1` [Ex. 1, Bz-Ile-Glu(OMe)-Gly-Arg-pNA.HCl] (Bz-IE(OMe)GR-pNA), the “Vmax · 10^8” value on factor Xa [1] was 8.1 mol/min · U. At factor Xa [2], this molecule registered a Relative activity of 230.

Consider `CC[C@H](C)[C@H](NC(=O)c1ccccc1)C(=O)N[C@@H](CCC(=O)O)C(=O)NCC(=O)N[C@@H](CCCNC(=N)N)C(=O)Nc1ccc([N+](=O)[O-])cc1` [Example S-2222, Benzoyl-Ile-Glu-Gly-Arg-p-nitroanilide, reference compound] (Bz-IEGR-pNA), for which the “Vmax · 10^8” value at factor Xa [1] worked out at 8.6 mol/min · U. Moreover, the Relative activity at factor Xa [2] is on record as 100.

`CC[C@H](C)[C@H](NC(=O)c1ccccc1)C(=O)N[C@@H](CCC(=O)N1CCCCC1)C(=O)NCC(=O)N[C@@H](CCCNC(=N)N)C(=O)Nc1ccc([N+](=O)[O-])cc1` [Ex. 7] (Bz-IE(Piperidide)GR-pNA): the “Vmax · 10^8” value at factor Xa [1] is 8.6 mol/min · U. Further, the Relative activity at factor Xa [2] worked out at 300.

Consider `CCOC(=O)CC[C@H](NC(=O)[C@@H](NC(=O)c1ccccc1)[C@@H](C)CC)C(=O)NCC(=O)N[C@@H](CCCNC(=N)N)C(=O)Nc1ccc([N+](=O)[O-])cc1` [Ex. 2, Bz-Ile-Glu(OEt)-Gly-Arg-pNA.HCl] (Bz-IE(OEt)GR-pNA), for which the “Vmax · 10^8” value on factor Xa [1] amounted to 7.5 mol/min · U. The molecule further came in with a Relative activity at factor Xa [2] of 200.

For `CC[C@H](C)[C@H](NC(=O)c1ccccc1)C(=O)N[C@@H](CCC(=O)NC(C)C)C(=O)NCC(=O)N[C@@H](CCCNC(=N)N)C(=O)Nc1ccc([N+](=O)[O-])cc1` [Ex. 6] (Bz-IE(NHiPr)GR-pNA), on factor Xa [1], the “Vmax · 10^8” value was 20.0 mol/min · U. The molecule also registered a Relative activity at factor Xa [2] of 340.

Take `CC[C@H](C)[C@H](NC(=O)c1ccccc1)C(=O)N[C@@H](CCC(=O)OC(C)C)C(=O)NCC(=O)N[C@@H](CCCNC(=N)N)C(=O)Nc1ccc([N+](=O)[O-])cc1` [Ex. 3, Bz-Ile-Glu(OisoPr)-Gly-Arg-pNA.HCl] (Bz-IE(OiPr)GR-pNA): the “Vmax · 10^8” value on factor Xa [1] worked out at 7.1 mol/min · U. At factor Xa [2], this molecule returned a Relative activity of 220.

B1: factor Xa (Bos taurus) (protein)
chain 1: IVGGRDCAEGECPWQALLVNEENEGFCGGTILNEFYVLTAAHCLHQAKRFTVRVGDRNTEQEEGNEMAHEVEMTVKHSRFVKETYDFDIAVLRLKTPIRFRRNVAPACLPEKDWAEATLMTQKTGIVSGFGRTHEKGRLSSTLKMLEVPYVDRSTCKLSSSFTITPNMFCAGYDTQPEDACQGDSGGPHVTRFKDTYFVTGIVSWGEGCARKGKFGVYTKVSNFLKWIDKIMKARAGAAGSRGHSEAPATWTVPPPLPL
chain 2: ANSFLEEVKQGNLERECLEEACSLEEAREVFEDAEQTDEFWSKYKDGDQCEGHPCLNQGHCKDGIGDYTCTCAEGFEGKNCEFSTREICSLDNGGCDQFCREERSEVRCSCAHGYVLGDDSKSCVSTERFPCGKFTQGRS
notes: purchased Diagnostic Reagents (product 'Diagen', 6.4 Denson U)
In general, Km refers to the substrate concentration at which the rate is half of its maximum. As to B1, the Km in data set [3] is 290 µM; in data set [4], 170 µM; in data set [5], 560 µM; in data set [6] it was 830 µM; in data set [7], 210 µM; in data set [8] it was 260 µM.

Values taken from patent US4276375A, “Determination of serine proteases” (AB Kabi, priority 1976, dated 1981).
